In PubChem BioAssay AID1919015 (Molecular Pharmacology Branch, DTP, NCI, 2023):

System: OVCAR-5 complex spheroids with HUVEC/MSC, viability, % test/control
Assay: Anticancer human tumor OVCAR-5 cell line growth inhibition [AhR];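 note: spheroids exposed to compounds for 7 days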;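 for viability, T/C: 100% = DMSO vehicle control wells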
Conditions: for IC50: curve of first compound; for viability, T/C: stronger effect = lower value
Procedure, shortened: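 Spheroids combined tumor cells with HUVEC endothelial cells and human MSCs as stroma. AhR antagonists were paired with standard or investigational drugs, each dosed in half-log steps down from near clinical Cmax, or from 10 microM where Cmax was unknown.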

[1] = second compound 0.1 µM, first compound 0.0316 µM
[2] = second compound 0.1 µM, first compound 0.1 µM
[3] = second compound 0.1 µM, first compound 0.316 µM
[4] = second compound 0.1 µM, first compound 1 µM
[5] = second compound 0.1 µM, first compound 3.16 µM
[6] = second compound 0.1 µM, first compound 10 µM
[7] = second compound 0.316 µM, first compound 0.0316 µM
[8] = second compound 0.316 µM, first compound 0.1 µM
[9] = second compound 0.316 µM, first compound 0.316 µM
[10] = second compound 0.316 µM, first compound 1 µM
[11] = second compound 0.316 µM, first compound 3.16 µM
[12] = second compound 0.316 µM, first compound 10 µM
[13] = second compound 1 µM, first compound 0.0316 µM
[14] = second compound 1 µM, first compound 0.1 µM
[15] = second compound 1 µM, first compound 0.316 µM
[16] = second compound 1 µM, first compound 1 µM
[17] = second compound 1 µM, first compound 3.16 µM
[18] = second compound 1 µM, first compound 10 µM
[19] = second compound 3.16 µM, first compound 0.0316 µM
[20] = second compound 3.16 µM, first compound 0.1 µM
[21] = second compound 3.16 µM, first compound 0.316 µM
[22] = second compound 3.16 µM, first compound 1 µM
[23] = second compound 3.16 µM, first compound 3.16 µM
[24] = second compound 3.16 µM, first compound 10 µM
[25] = second compound 10 µM, first compound 0.0316 µM
[26] = second compound 10 µM, first compound 0.1 µM
[27] = second compound 10 µM, first compound 0.316 µM
[28] = second compound 10 µM, first compound 1 µM
[29] = second compound 10 µM, first compound 3.16 µM
[30] = second compound 10 µM, first compound 10 µM

## CC(C)CC(NC(=O)C(Cc1ccccc1)NC(=O)c1cnccn1)B(O)O (stereo not given) + Cc1ccccc1N=Nc1ccc(NC(=O)c2ccnn2C)c(C)c1
Second compound 0.1 µM
  IC50: 0.0494 µM
Second compound 0.316 µM
  IC50: 0.0482 µM
Second compound 1 µM
  IC50: 0.05 µM
Second compound 3.16 µM
  IC50: 0.0482 µM
Second compound 10 µM
  IC50: 0.0554 µM
Second compound 0.1 µM, first compound 0.000949 µM
  viability, T/C: 101%
Second compound 0.1 µM, first compound 0.003 µM
  viability, T/C: 105%
Second compound 0.1 µM, first compound 0.00949 µM
  viability, T/C: 96.9%
Second compound 0.1 µM, first compound 0.03 µM
  viability, T/C: 69%
Second compound 0.1 µM, first compound 0.0949 µM
  viability, T/C: 25%
Second compound 0.1 µM, first compound 0.3 µM
  viability, T/C: 19.3%
Second compound 0.316 µM, first compound 0.000949 µM
  viability, T/C: 104%
Second compound 0.316 µM, first compound 0.003 µM
  viability, T/C: 108%
Second compound 0.316 µM, first compound 0.00949 µM
  viability, T/C: 98.7%
Second compound 0.316 µM, first compound 0.03 µM
  viability, T/C: 67.1%
Second compound 0.316 µM, first compound 0.0949 µM
  viability, T/C: 25.7%
Second compound 0.316 µM, first compound 0.3 µM
  viability, T/C: 17.6%
Second compound 1 µM, first compound 0.000949 µM
  viability, T/C: 108%
Second compound 1 µM, first compound 0.003 µM
  viability, T/C: 112%
Second compound 1 µM, first compound 0.00949 µM
  viability, T/C: 101%
Second compound 1 µM, first compound 0.03 µM
  viability, T/C: 69.4%
Second compound 1 µM, first compound 0.0949 µM
  viability, T/C: 25.5%
Second compound 1 µM, first compound 0.3 µM
  viability, T/C: 19.6%
Second compound 3.16 µM, first compound 0.000949 µM
  viability, T/C: 111%
Second compound 3.16 µM, first compound 0.003 µM
  viability, T/C: 112%
Second compound 3.16 µM, first compound 0.00949 µM
  viability, T/C: 105%
Second compound 3.16 µM, first compound 0.03 µM
  viability, T/C: 66.1%
Second compound 3.16 µM, first compound 0.0949 µM
  viability, T/C: 26.9%
Second compound 3.16 µM, first compound 0.3 µM
  viability, T/C: 21.5%
Second compound 10 µM, first compound 0.000949 µM
  viability, T/C: 98.9%
Second compound 10 µM, first compound 0.003 µM
  viability, T/C: 105%
Second compound 10 µM, first compound 0.00949 µM
  viability, T/C: 93.6%
Second compound 10 µM, first compound 0.03 µM
  viability, T/C: 73.2%
Second compound 10 µM, first compound 0.0949 µM
  viability, T/C: 29.3%
Second compound 10 µM, first compound 0.3 µM
  viability, T/C: 23.5%

## COc1cc(Nc2ncc3c(n2)-c2ccc(Cl)cc2C(c2c(F)cccc2OC)=NC3)ccc1C(=O)O + Cc1ccccc1N=Nc1ccc(NC(=O)c2ccnn2C)c(C)c1
Second compound 0.1 µM
  IC50: 2.34 µM
Second compound 0.316 µM
  IC50: 2.97 µM
Second compound 1 µM
  IC50: 4.99 µM
Second compound 3.16 µM
  IC50: 6.14 µM
Second compound 10 µM
  IC50: 6.34 µM
[1]
  viability, T/C: 89.5%
[2]
  viability, T/C: 81.7%
[3]
  viability, T/C: 60.2%
[4]
  viability, T/C: 57.2%
[5]
  viability, T/C: 50.3%
[6]
  viability, T/C: 42%
[7]
  viability, T/C: 89.4%
[8]
  viability, T/C: 86.8%
[9]
  viability, T/C: 64.2%
[10]
  viability, T/C: 59.5%
[11]
  viability, T/C: 52.3%
[12]
  viability, T/C: 41.7%
[13]
  viability, T/C: 91.2%
[14]
  viability, T/C: 87.8%
[15]
  viability, T/C: 68.5%
[16]
  viability, T/C: 64.4%
[17]
  viability, T/C: 55.4%
[18]
  viability, T/C: 43.7%
[19]
  viability, T/C: 97.6%
[20]
  viability, T/C: 91.3%
[21]
  viability, T/C: 74.8%
[22]
  viability, T/C: 68.1%
[23]
  viability, T/C: 54.5%
[24]
  viability, T/C: 46.2%
[25]
  viability, T/C: 93.3%
[26]
  viability, T/C: 86.4%
[27]
  viability, T/C: 74.2%
[28]
  viability, T/C: 67.2%
[29]
  viability, T/C: 54.7%
[30]
  viability, T/C: 46.6%

## Cn1ncnc1C1c2n[nH]c(=O)c3cc(F)cc(c23)NC1c1ccc(F)cc1 (stereo not given) + Cc1ccccc1N=Nc1ccc(NC(=O)c2ccnn2C)c(C)c1
Second compound 0.1 µM
  IC50: > 0.1 µM
Second compound 0.316 µM
  IC50: > 0.1 µM
Second compound 1 µM
  IC50: > 0.1 µM
Second compound 3.16 µM
  IC50: > 0.1 µM
Second compound 10 µM
  IC50: > 0.1 µM
Second compound 0.1 µM, first compound 0.000316 µM
  viability, T/C: 105%
Second compound 0.1 µM, first compound 0.001 µM
  viability, T/C: 107%
Second compound 0.1 µM, first compound 0.00316 µM
  viability, T/C: 101%
Second compound 0.1 µM, first compound 0.01 µM
  viability, T/C: 96.2%
[1]
  viability, T/C: 94.5%
[2]
  viability, T/C: 90.9%
Second compound 0.316 µM, first compound 0.000316 µM
  viability, T/C: 108%
Second compound 0.316 µM, first compound 0.001 µM
  viability, T/C: 110%
Second compound 0.316 µM, first compound 0.00316 µM
  viability, T/C: 104%
Second compound 0.316 µM, first compound 0.01 µM
  viability, T/C: 102%
[7]
  viability, T/C: 96.6%
[8]
  viability, T/C: 98.8%
Second compound 1 µM, first compound 0.000316 µM
  viability, T/C: 111%
Second compound 1 µM, first compound 0.001 µM
  viability, T/C: 113%
Second compound 1 µM, first compound 0.00316 µM
  viability, T/C: 111%
Second compound 1 µM, first compound 0.01 µM
  viability, T/C: 102%
[13]
  viability, T/C: 101%
[14]
  viability, T/C: 102%
Second compound 3.16 µM, first compound 0.000316 µM
  viability, T/C: 110%
Second compound 3.16 µM, first compound 0.001 µM
  viability, T/C: 116%
Second compound 3.16 µM, first compound 0.00316 µM
  viability, T/C: 118%
Second compound 3.16 µM, first compound 0.01 µM
  viability, T/C: 109%
[19]
  viability, T/C: 101%
[20]
  viability, T/C: 108%
Second compound 10 µM, first compound 0.000316 µM
  viability, T/C: 106%
Second compound 10 µM, first compound 0.001 µM
  viability, T/C: 105%
Second compound 10 µM, first compound 0.00316 µM
  viability, T/C: 102%
Second compound 10 µM, first compound 0.01 µM
  viability, T/C: 105%
[25]
  viability, T/C: 102%
[26]
  viability, T/C: 102%

## NS(=O)(=O)OCC1CC(n2ccc3c(NC4CCc5ccccc54)ncnc32)CC1O (stereo not given) + Cc1ccccc1N=Nc1ccc(NC(=O)c2ccnn2C)c(C)c1
Second compound 0.1 µM
  IC50: 0.201 µM
Second compound 0.316 µM
  IC50: 0.178 µM
Second compound 1 µM
  IC50: 0.141 µM
Second compound 3.16 µM
  IC50: 0.0963 µM
Second compound 10 µM
  IC50: 0.0946 µM
[1]
  viability, T/C: 96.4%
[2]
  viability, T/C: 66.9%
[3]
  viability, T/C: 40.8%
[4]
  viability, T/C: 16.2%
[5]
  viability, T/C: 9.98%
[6]
  viability, T/C: 10.5%
[7]
  viability, T/C: 88.3%
[8]
  viability, T/C: 63.3%
[9]
  viability, T/C: 37.8%
[10]
  viability, T/C: 14.3%
[11]
  viability, T/C: 11.1%
[12]
  viability, T/C: 9.31%
[13]
  viability, T/C: 82.5%
[14]
  viability, T/C: 55.6%
[15]
  viability, T/C: 36.2%
[16]
  viability, T/C: 14.2%
[17]
  viability, T/C: 9.92%
[18]
  viability, T/C: 9.81%
[19]
  viability, T/C: 66.6%
[20]
  viability, T/C: 47.7%
[21]
  viability, T/C: 32.2%
[22]
  viability, T/C: 12.7%
[23]
  viability, T/C: 9.52%
[24]
  viability, T/C: 8.47%
[25]
  viability, T/C: 69.5%
[26]
  viability, T/C: 47.7%
[27]
  viability, T/C: 29.2%
[28]
  viability, T/C: 11%
[29]
  viability, T/C: 7.66%
[30]
  viability, T/C: 7.56%

## O=C(C=Cc1cccc(S(=O)(=O)Nc2ccccc2)c1)NO + Cc1ccccc1N=Nc1ccc(NC(=O)c2ccnn2C)c(C)c1
Second compound 0.1 µM
  IC50: 1.1 µM
Second compound 0.316 µM
  IC50: 1.08 µM
Second compound 1 µM
  IC50: 1.18 µM
Second compound 3.16 µM
  IC50: 1.03 µM
Second compound 10 µM
  IC50: 1.06 µM
[1]
  viability, T/C: 100%
[2]
  viability, T/C: 89.7%
[3]
  viability, T/C: 76.1%
[4]
  viability, T/C: 53%
[5]
  viability, T/C: 24.8%
[6]
  viability, T/C: 5.54%
[7]
  viability, T/C: 101%
[8]
  viability, T/C: 97.2%
[9]
  viability, T/C: 77.2%
[10]
  viability, T/C: 54.2%
[11]
  viability, T/C: 21.3%
[12]
  viability, T/C: 5.42%
[13]
  viability, T/C: 103%
[14]
  viability, T/C: 97.4%
[15]
  viability, T/C: 84.8%
[16]
  viability, T/C: 54.1%
[17]
  viability, T/C: 22.6%
[18]
  viability, T/C: 5.11%
[19]
  viability, T/C: 103%
[20]
  viability, T/C: 99.3%
[21]
  viability, T/C: 81%
[22]
  viability, T/C: 50.2%
[23]
  viability, T/C: 21.6%
[24]
  viability, T/C: 5.09%
[25]
  viability, T/C: 93.4%
[26]
  viability, T/C: 96.2%
[27]
  viability, T/C: 76.2%
[28]
  viability, T/C: 52%
[29]
  viability, T/C: 22.3%
[30]
  viability, T/C: 5.86%
